Laboratory results: paper doi:10.1101/2021.01.05.425432v2 (biorxiv, 2021)
Converted amounts (≈) assume the structure as drawn. Where two headings read alike, the source gives them in different places.

Tests used:
H. pylori urease (HPU) [1] = target: T1, H. pylori urease (HPU) (Helicobacter pylori, UniProt P69996); experiment: tandem-well NH3 assay, Nessler's reagent, crude extract; format: biochemical
H. pylori urease (HPU) [2] = target: T1, H. pylori urease (HPU); experiment: cell-based
H. pylori [3] = experiment: microbe, parasite or virus in culture; settings: Helicobacter pylori, 72 h, read-out: H. pylori (MIC) µg/ml
jack bean urease (JBU) [4] = target: T2, jack bean urease (JBU) (Canavalia ensiformis, UniProt P07374); experiment: tandem-well NH3 assay, salicylic acid-hypochlorite; format: biochemical
T2 sequence (P07374 whole entry, looked up): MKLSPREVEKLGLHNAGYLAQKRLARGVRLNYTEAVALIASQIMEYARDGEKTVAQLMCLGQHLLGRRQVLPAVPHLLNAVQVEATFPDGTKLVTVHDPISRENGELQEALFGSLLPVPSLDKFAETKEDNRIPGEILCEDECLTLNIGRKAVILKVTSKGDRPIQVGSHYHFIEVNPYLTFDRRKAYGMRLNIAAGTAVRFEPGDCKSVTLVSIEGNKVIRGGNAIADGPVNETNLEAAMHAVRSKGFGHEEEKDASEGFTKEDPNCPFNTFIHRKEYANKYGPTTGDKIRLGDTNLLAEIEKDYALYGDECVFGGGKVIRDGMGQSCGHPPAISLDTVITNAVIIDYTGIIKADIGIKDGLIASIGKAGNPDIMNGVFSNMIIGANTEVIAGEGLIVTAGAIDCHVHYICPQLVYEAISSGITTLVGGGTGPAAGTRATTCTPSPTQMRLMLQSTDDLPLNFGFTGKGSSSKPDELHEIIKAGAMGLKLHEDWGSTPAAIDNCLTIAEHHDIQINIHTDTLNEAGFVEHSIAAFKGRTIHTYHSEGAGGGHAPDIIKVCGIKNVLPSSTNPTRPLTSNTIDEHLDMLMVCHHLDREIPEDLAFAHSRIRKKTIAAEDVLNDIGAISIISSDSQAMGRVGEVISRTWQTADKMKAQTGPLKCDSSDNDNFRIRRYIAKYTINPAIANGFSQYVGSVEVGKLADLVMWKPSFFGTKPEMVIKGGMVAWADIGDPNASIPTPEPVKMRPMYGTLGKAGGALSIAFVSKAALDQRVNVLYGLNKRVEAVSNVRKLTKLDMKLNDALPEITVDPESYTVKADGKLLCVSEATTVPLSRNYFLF

H. pylori [5] = experiment: microbe, parasite or virus in culture; settings: Helicobacter pylori, 72 h, read-out: H. pylori (MIC) µM
O. anthropi urease (OAU) = format: biochemical, Brucella anthropi
jack bean urease (JBU) [6] = target: T2, jack bean urease (JBU); experiment: enzyme kinetics, tandem-well NH3 assay; format: biochemical
human CSE (hCSE) = human CSE (hCSE) (Homo sapiens, UniProt P32929); experiment: tandem-well H2S assay; format: biochemical
human CSE (hCSE), sequence (P32929 whole entry): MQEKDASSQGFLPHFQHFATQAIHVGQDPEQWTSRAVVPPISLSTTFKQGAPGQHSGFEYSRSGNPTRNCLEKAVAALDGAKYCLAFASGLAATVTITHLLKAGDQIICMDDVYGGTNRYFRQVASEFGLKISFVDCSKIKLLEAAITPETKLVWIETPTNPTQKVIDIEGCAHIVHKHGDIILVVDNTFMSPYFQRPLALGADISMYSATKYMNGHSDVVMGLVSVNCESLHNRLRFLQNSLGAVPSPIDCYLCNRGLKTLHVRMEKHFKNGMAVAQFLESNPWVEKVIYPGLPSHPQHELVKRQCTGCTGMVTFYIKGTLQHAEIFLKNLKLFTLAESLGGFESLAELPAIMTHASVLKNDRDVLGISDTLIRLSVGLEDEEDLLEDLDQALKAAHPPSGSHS

human CBS (hCBS) = target: T3, human CBS (hCBS) (Homo sapiens, UniProt P35520); experiment: tandem-well H2S assay; format: biochemical
T3 sequence (P35520 1-551): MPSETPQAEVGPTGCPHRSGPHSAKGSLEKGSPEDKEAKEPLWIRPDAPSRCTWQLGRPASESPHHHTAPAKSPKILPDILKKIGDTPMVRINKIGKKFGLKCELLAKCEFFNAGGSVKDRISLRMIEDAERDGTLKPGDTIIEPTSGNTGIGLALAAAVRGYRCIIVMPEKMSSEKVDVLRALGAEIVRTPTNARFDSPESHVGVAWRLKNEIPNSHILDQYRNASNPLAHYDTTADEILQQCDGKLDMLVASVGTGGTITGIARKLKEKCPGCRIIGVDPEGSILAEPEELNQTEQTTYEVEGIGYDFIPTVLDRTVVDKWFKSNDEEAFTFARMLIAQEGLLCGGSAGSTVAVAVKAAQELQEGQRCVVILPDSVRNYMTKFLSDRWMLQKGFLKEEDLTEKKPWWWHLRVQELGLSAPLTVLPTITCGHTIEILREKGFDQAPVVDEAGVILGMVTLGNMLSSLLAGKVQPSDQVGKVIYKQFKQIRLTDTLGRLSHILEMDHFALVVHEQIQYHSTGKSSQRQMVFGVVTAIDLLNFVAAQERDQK

jack bean urease (JBU) [7] = target: T2, jack bean urease (JBU); experiment: SPR, Biacore T200, JBU immobilised on CM5 chip; format: binding
jack bean urease (JBU) [8] = target: T2, jack bean urease (JBU); experiment: enzyme kinetics, tandem-well NH3 assay; format: biochemical; settings: urea 12.5-200 mM; noncompetitive, covalent, allosteric (Cys313)
[9] = 25 mM urea, 100 μM NiCl2, 50 mM phosphate pH 7.4, 37 °C, 30 min preincubation

T1 sequence (P69996 whole entry): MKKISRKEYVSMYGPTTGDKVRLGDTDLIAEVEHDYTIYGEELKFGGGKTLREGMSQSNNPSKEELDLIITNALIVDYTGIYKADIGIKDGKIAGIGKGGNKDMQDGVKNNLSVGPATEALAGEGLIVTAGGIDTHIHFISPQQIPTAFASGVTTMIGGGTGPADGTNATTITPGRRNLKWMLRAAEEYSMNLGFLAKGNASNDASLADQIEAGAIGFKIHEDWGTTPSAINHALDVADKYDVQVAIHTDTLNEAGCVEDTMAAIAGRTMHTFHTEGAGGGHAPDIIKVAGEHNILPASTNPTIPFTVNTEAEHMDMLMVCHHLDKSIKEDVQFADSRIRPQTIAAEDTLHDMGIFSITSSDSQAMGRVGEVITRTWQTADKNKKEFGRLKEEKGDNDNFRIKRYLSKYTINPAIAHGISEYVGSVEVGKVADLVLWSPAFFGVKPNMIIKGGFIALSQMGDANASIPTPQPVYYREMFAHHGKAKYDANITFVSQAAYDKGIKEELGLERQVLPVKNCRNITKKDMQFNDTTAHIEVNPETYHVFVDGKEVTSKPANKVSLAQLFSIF
T1 sequence (P14916 whole entry partner): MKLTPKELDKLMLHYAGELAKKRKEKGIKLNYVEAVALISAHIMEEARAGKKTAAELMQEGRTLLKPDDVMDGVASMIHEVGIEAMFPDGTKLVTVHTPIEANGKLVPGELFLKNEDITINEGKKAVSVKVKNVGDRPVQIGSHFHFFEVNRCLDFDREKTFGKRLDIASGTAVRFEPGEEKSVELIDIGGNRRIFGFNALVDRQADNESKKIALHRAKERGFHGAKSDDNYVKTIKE

SMILES | IC50 (H. pylori urease (HPU) [1]) [µM] | MIC (H. pylori [3]) [µg/mL] | IC50 (jack bean urease (JBU) [4]) [µM] | MIC (H. pylori [5]) [µM] | IC50 (O. anthropi urease (OAU)) [µM] | further results
O=C1c2ccccc2[Se](=O)N1c1ccccc1 (stereo not shown) [Ebselen oxide] | 1.5 ± 0.2 | 4 (≈ 13.8 µM) | 0.4 ± 0.005 | 12.5 (≈ 3.63 µg/mL) | 3.3 ± 0.1 | IC50 (H. pylori urease (HPU) [2]): 23.2 ± 1.1 µM
Cc1ncc([N+](=O)[O-])n1CCO [Metronidazole] |  | > 512 |  | > 3000 |  | 
CCS(=O)(=O)CCn1c([N+](=O)[O-])cnc1C [Tinidazole] |  | > 512 |  | > 2000 |  | 
CN(C)Cc1c(C(=O)NCCOc2ccc(C(=O)NO)cc2)oc2ccccc12 [abexinostat] | 1.3 ± 0.2 |  | 1.4 ± 0.3 |  |  | 
CC(=O)NO [acetohydroxamic acid] | 25.9 ± 1.2 | > 16 | 162 ± 13.4 |  | 2.8 ± 0.9 | Ki (jack bean urease (JBU) [6]): 2.1 ± 0.8 µM; IC50 (human CSE (hCSE)): > 200 µM; IC50 (human CBS (hCBS)): > 200 µM
O=C(/C=C/c1cccc(S(=O)(=O)Nc2ccccc2)c1)NO [belinostat] | 3.2 ± 0.2 |  | 4.7 ± 0.5 |  |  | 
COc1ccc2c(=O)n(-c3ccccc3)[se]c2c1 [compound 1, 2-Phenyl-6-methoxybenzoisoselen-3-one] |  |  |  |  | 7.5 ± 0.6 | IC50 (H. pylori urease (HPU) [1]; [9]): 2 ± 0.9 µM; IC50 (jack bean urease (JBU) [4]; [9]): 0.3 ± 0.007 µM
COc1ccc2c(=O)n(-c3ccccc3)[se]c2c1 [compound 1] |  | 2 (≈ 6.57 µM) |  | 6.25 (≈ 1.9 µg/mL) |  | 
O=c1[nH][se]c2ccccc12 [compound 4, Benzisoselenol-3-one] | 1.1 ± 0.08 |  | 0.8 ± 0.008 |  | 2.2 ± 0.1 | 
O=c1[nH][se]c2ccccc12 [compound 4] |  | 2 (≈ 10.1 µM) |  | 12.5 (≈ 2.48 µg/mL) |  | IC50 (H. pylori urease (HPU) [2]): 18.5 ± 1.2 µM
CCCn1[se]c2ccccc2c1=O [compound 5, 2-Propyl-benzisoselenol-3-one] | > 10 |  | 1.4 ± 0.03 |  | 5.3 ± 0.9 | 
CSn1[se]c2ccccc2c1=O [compound 6, 2-Methylthio-benzisoseleno-3-one] |  |  |  |  | 1.7 ± 0.1 | IC50 (H. pylori urease (HPU) [1]; [9]): 1.3 ± 0.4 µM; IC50 (jack bean urease (JBU) [4]; [9]): 0.3 ± 0.04 µM
c1ccc(C[Se][Se]Cc2ccccc2)cc1 [dibenzyl diselenide] |  | > 64 |  | > 200 |  | 
CCN(CC)C(=S)SSC(=S)N(CC)CC [disulfiram] | 8.9 ± 1.5 | 4 (≈ 13.5 µM) | 38.9 ± 2.7 | 12.5 (≈ 3.71 µg/mL) | 35 ± 0.1 | IC50 (H. pylori urease (HPU) [2]): 36.3 ± 1 µM; IC50 (human CSE (hCSE)): > 200 µM; IC50 (human CBS (hCBS)): > 200 µM
O=c1c2ccccc2[se]n1-c1ccccc1 [ebselen] | 2.8 ± 0.5 | 4 (≈ 14.6 µM) | 0.4 ± 0.07 | 12.5 (≈ 3.43 µg/mL) | 3 ± 1 | Kd (jack bean urease (JBU) [7]): 0.089 ± 0.005 µM; IC50 (H. pylori urease (HPU) [2]): 5.7 ± 1.3 µM; IC50 (human CSE (hCSE)): 44.3 ± 1.3 µM; αKi (jack bean urease (JBU) [8]): 0.8 ± 0.2 µM; IC50 (human CBS (hCBS)): > 200 µM
NO [hydroxylamine] | > 20 |  | > 20 |  |  | 
CNC(=O)[C@H](Cc1c[nH]c2ccccc12)NC(=O)[C@@H](CC(=O)NO)CC(C)C [ilomastat] | > 20 |  | > 20 |  |  | 
Cc1[nH]c2ccccc2c1CCNCc1ccc(/C=C/C(=O)NO)cc1 [panobinostat] | 0.1 ± 0.01 |  | 0.2 ± 0.006 |  | 0.07 ± 0.006 | Kd (jack bean urease (JBU) [7]): 8.9 ± 0.4 µM; Ki (jack bean urease (JBU) [6]): 0.02 ± 0.01 µM; IC50 (human CSE (hCSE)): > 200 µM; IC50 (human CBS (hCBS)): > 200 µM
O=C(CCCCCCNC(=O)c1cnc(N(c2ccccc2)c2ccccc2)nc1)NO [ricolinostat] | > 20 |  | > 20 |  |  | 
O=C(CCCCCCC(=O)Nc1ccccc1)NO [vorinostat] | 14 ± 3.9 |  | 4.1 ± 1.9 |  |  | 
